From paper PMC8134483 (Scientific Reports, 2021)
Where two headings read alike, the source gives them in different places.

Legend:
hCB1R [1] = target: T1, hCB1R (Homo sapiens, UniProt P21554); assay: cell-based; format: cell-based; settings: for EC50: CHO hCB1R, 90 min, value with 95% CI, read-out: CB1R βarrestin2 recruitment EC50; for Emax: read-out: CB1R βarrestin2 recruitment Emax; for βarrestin2 recruitment to CB1R, activity in words: relative to CP55940; for CB1R versus CB2R selectivity, βarrestin2 recruitment: CB1R vs CB2R
T1 construct: expressed in transfected cells; host or cells: CHO-K1
T1 sequence (P21554 whole entry): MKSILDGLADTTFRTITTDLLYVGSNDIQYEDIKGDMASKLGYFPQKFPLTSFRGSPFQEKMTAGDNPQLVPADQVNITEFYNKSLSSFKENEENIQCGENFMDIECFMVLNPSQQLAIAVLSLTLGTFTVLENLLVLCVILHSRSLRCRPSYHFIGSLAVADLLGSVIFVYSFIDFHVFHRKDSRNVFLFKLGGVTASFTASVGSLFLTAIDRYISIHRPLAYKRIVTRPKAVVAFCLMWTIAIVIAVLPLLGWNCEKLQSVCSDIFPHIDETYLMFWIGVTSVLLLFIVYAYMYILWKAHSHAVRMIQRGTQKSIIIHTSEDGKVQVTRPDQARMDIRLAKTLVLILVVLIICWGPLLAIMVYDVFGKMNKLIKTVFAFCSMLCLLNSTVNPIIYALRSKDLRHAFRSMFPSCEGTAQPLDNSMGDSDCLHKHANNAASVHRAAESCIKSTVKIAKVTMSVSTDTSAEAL

hCB1R [2] = target: T1, hCB1R; assay: cell-based; format: cell-based; settings: for CB1R versus CB2R selectivity, cAMP inhibition potency: CB1R vs CB2R; for EC50: CHO hCB1R, 10 µM FSK, 90 min, value with 95% CI, read-out: CB1R cAMP Inhibition EC50; for Emax: read-out: CB1R cAMP Inhibition Emax
hCB2R [3] = target: T2, hCB2R (Homo sapiens, UniProt P34972); assay: CB2R bias analysis (operational model, cAMP inhibition vs βarrestin2); format: cell-based; settings: CP55,940 as reference agonist; >0 cAMP bias, <0 βarrestin2 bias
T2 construct: host or cells: CHO-K1 (PathHunter)
T2 sequence (P34972 whole entry): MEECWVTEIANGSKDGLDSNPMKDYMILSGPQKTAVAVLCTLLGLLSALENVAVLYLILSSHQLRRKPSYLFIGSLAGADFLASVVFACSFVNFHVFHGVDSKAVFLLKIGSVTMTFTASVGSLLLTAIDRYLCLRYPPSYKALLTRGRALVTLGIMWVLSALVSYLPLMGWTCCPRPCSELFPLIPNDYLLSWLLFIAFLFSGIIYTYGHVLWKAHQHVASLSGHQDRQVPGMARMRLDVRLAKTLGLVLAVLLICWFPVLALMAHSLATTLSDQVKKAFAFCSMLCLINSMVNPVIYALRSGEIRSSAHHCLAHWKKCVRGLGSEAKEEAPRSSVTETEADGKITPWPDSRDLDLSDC
Procedure: (§1) Estimates of Ki, EC50, Emin, and Emax were determined using non-linear regression with variable slope (four parameters) (GraphPad, Prism, v. 8.0). […] One-way analysis of variance (ANOVA), followed by Tukey’s post-hoc test, was used for statistical analyses (p < 0.05 determined to be significant); and Bartlett’s test was used to confirm homogeneity of variance (GraphPad).

male C57Bl/6 mice [4] = assay: Elevated plus maze (EPM); format: in vivo; settings: 1.0 mg/kg i.p., 30 min after treatment, 5 min trial; for EPM total arm entries: vs vehicle
Procedure: (§2) Adult male C57BL/6 mice aged 6–10 weeks (mean weight 24 ± 0.5 g) were purchased from Charles River Labs (Senneville, QC). Animals were group housed (three per cage) with ad libitum access to food, water, and environmental enrichment and maintained on a 12 h light/dark cycle. Mice were randomly assigned to receive i.p. injections of vehicle (1:1:18 ethanol:emulphor:saline) or 0.1–10 mg/kg SCRA (n ≥ 4 per group). All protocols have been described previously and were in accordance with the guidelines detailed by the Canadian Council on Animal Care and approved by the Animal Research Ethics Board and the Scientific Merit Review Committee for Animal Behaviour at the University of Saskatchewan. The following steps were taken to ensure our study was in keeping with the ARRIVE guidelines: (1) power analyses were conducted to determine the minimum number of animals required for the study; (2) animals were purchased—rather than bred—to limit animal waste; and (3) all assessments of animal behaviour were made by individuals blinded to the treatment group,[57].
EPM was conducted according to methods adapted from Marks et al.. The EPM was built from a plywood base painted blue with blue corrugated plastic floor and walls. The floor of the maze was composed of perpendicular interlocking arms (110 cm long × 10 cm wide) with two arms having 45 cm walls (closed arms) and two arms having no walls and a 0.5 cm edge (open arms), all elevated 45 cm from the ground. Trials began with the mouse in the central zone facing an open arm. Trials lasted 5 min and began 30 min after SCRA treatment. An arm entry was considered to be all four limbs leaving the central zone. Arm entries and the percent time spent in open versus closed arms were recorded by an observer blinded to the treatment group. Less time in the open arms and more time in the closed arms was used as a model of anxiogenic behaviour.

male C57Bl/6 mice [5] = assay: Catalepsy, ring holding assay; format: in vivo; settings: 0.1–10 mg/kg i.p.; 5 min; % MPE 60 s
Procedure: as §2, with “The following steps were taken to ensure our study was in keeping with the ARRIVE guidelines: (1) power analyses were conducted to determine the minimum number of animals required for the study; (2) animals were purchased—rather than bred—to limit animal waste; and (3) all assessments of animal behaviour were made by individuals blinded to the treatment group,[57].” left out
(§3) Modified tetrad testing (catalepsy, body temperature, tail flick assay) was conducted according to previously described methods, which are summarized briefly here. […] Catalepsy was assessed in the ring holding assay 5 min following injection with mouse forepaws clasped to a 5 mm ring positioned 5 cm above the surface of the testing space. The length of time the ring was held was recorded (s) to a maximum time of 60 s (i.e. MPE = 60 s). Internal body temperature was measured 15 min after injection. Anti-nociception was determined by assessing tail flick latency 20 min after injection. […]

hCB2R [6] = target: T2, hCB2R; assay: HitHunter inhibition of FSK-stimulated cAMP, CB2R; format: cell-based
hCB2R [7] = target: T2, hCB2R; assay: PathHunter βarrestin2 recruitment, CB2R; format: cell-based; settings: for βarrestin2 recruitment to CB2R, activity in words: relative to CP55,940
hCB2R [8] = target: T2, hCB2R; assay: [^3H]CP55,940 competition (radioligand displacement) binding to CB2R; settings: for CB2R [^3H]CP55,940 Emin: bottom of the concentration–response curve, mean ± SEM
male C57Bl/6 mice [9] = assay: Internal body temperature; format: in vivo; settings: 0.1–10 mg/kg i.p.; 15 min
Procedure: as §2, with “The following steps were taken to ensure our study was in keeping with the ARRIVE guidelines: (1) power analyses were conducted to determine the minimum number of animals required for the study; (2) animals were purchased—rather than bred—to limit animal waste; and (3) all assessments of animal behaviour were made by individuals blinded to the treatment group,[57].” left out
as §3

hCB1R [10] = target: T1, hCB1R; assay: biochemical; format: binding; settings: for CB1R versus CB2R selectivity, receptor affinity: CB1R vs CB2R [^3H]CP55,940 binding; for CB1R [^3H]CP55,940 Emin: bottom of the concentration–response curve, mean ± SEM
male C57Bl/6 mice [11] = assay: Anti-nociception, tail flick assay; format: in vivo; settings: 0.1–10 mg/kg i.p.; 20 min; 52 °C; % MPE 20 s
Procedure: as §2, with “The following steps were taken to ensure our study was in keeping with the ARRIVE guidelines: (1) power analyses were conducted to determine the minimum number of animals required for the study; (2) animals were purchased—rather than bred—to limit animal waste; and (3) all assessments of animal behaviour were made by individuals blinded to the treatment group,[57].” left out
as §3

hCB1R [12] = target: T1, hCB1R; assay: CB1R bias analysis (operational model, cAMP inhibition vs βarrestin2); format: cell-based; settings: for CB1R bias between cAMP inhibition and βarrestin2 recruitment, ∆∆LogR (cAMP—βarr2), in words: CP55,940 as reference agonist, >0 cAMP bias, <0 βarrestin2 bias
Procedure: as §1

| SMILES | EC50 (hCB1R [1]) [nM] | Emax (hCB1R [1]) [%] | βarrestin2 recruitment to CB1R, activity in words (hCB1R [1]) | CB1R versus CB2R selectivity, cAMP inhibition potency (hCB1R [2]) | EC50 (hCB1R [2]) [nM] | Emax (hCB1R [2]) [%] | CB2R bias between cAMP inhibition and βarrestin2 recruitment, ∆∆LogR (cAMP—βarr2), in words (hCB2R [3]) | EPM open arm entries (male C57Bl/6 mice [4]) | EPM time in the open arms (male C57Bl/6 mice [4]) | EC50 (hCB2R [6]) [nM] | Emax (hCB2R [6]) [%] | EC50 (hCB2R [7]) [nM] | Emax (hCB2R [7]) [%] | βarrestin2 recruitment to CB2R, activity in words (hCB2R [7]) | Ki (hCB2R [8]) [nM] | CB2R [^3H]CP55,940 Emin (hCB2R [8]) [%] | Ki (hCB1R [10]) [nM] | CB1R [^3H]CP55,940 Emin (hCB1R [10]) [%] | CB1R versus CB2R selectivity, βarrestin2 recruitment (hCB1R [1]) | CB1R bias between cAMP inhibition and βarrestin2 recruitment, ∆∆LogR (cAMP—βarr2), in words (hCB1R [12]) | also measured |
| --- | --- | --- | --- | --- | --- | --- | --- | --- | --- | --- | --- | --- | --- | --- | --- | --- | --- | --- | --- | --- | --- |
| CC(C)CCn1cc(C(=O)c2ccc3ccccc3c2)c2ccccc21 [JWH 018 2'-naphthyl-N-(3-methylbutyl) isomer] | > 10000 | 4.9 ± 0.51 | Inactive at βarrestin2 | more potent at CB2R relative to CB1R | 98 | 80 ± 9.1 | obligate cAMP-biased ligands | increased open arm entry | greater amount of time spent in the open arms | 0.52 | 110 ± 9.2 | > 10000 | 6.1 ± 1.3 | Inactive at βarrestin2 | 7.5 | 54 ± 3.5 | 0.93 | 9.6 ± 2.7 |  |  | EPM total arm entries (male C57Bl/6 mice [4]): did not change total arm entries; Catalepsy response (male C57Bl/6 mice [5]): partial agonist; βarrestin2 recruitment to CB2R, activity in words (hCB2R [7]; listed as JWH 018 2′-napthyl-N-(3-methylbutyl) isomer): inactive in βarrestin2; Body temperature (hypothermia) response (male C57Bl/6 mice [9]): did not change body temperature; CB1R versus CB2R selectivity, receptor affinity (hCB1R [10]): greater affinity at CB1R relative to CB2R; Anti-nociceptive response, tail flick (male C57Bl/6 mice [11]): full agonist; Observed CB1R bias in cell culture (hCB1R [12]; cAMP inhibition vs βarrestin2): G protein |
| CCC(Cl)CCn1nc(C(=O)NC(C(N)=O)C(C)C)c2ccccc21 (centres unmarked) [3-chloro AB-PINACA] | 140 | 340 ± 11 | greater potency and produced supramaximal EMax responses | more potent at CB1R relative to CB2R | 0.04 | 94 ± 2.8 | significant bias toward the recruitment of βarrestin2 |  |  | 19 | 87 ± 15 | 8.8 | 130 ± 4.5 | greater potency and produced supramaximal EMax responses | 52 | 84 ± 4.3 | 170 | 65 ± 5.1 | more potent for CB2R-dependent recruitment of βarrestin2 than CB1R-dependent recruitment of βarrestin2 | did not display a bias |  |
| CCCC(F)Cn1nc(C(=O)NC(C(N)=O)C(C)C)c2ccccc21 (stereo not drawn) [AB-PINACA N-(2-fluoropentyl) isomer] | 240 | 204 ± 10 | greater potency and produced supramaximal EMax responses |  | 7.3 | 75 ± 7.5 | significant bias toward the recruitment of βarrestin2 |  |  | 10 | 91 ± 3.2 | 9.4 | 140 ± 12 | greater potency and produced supramaximal EMax responses | 270 | 2.8 ± 8.1 | 1.6 | 76 ± 6.2 | more potent for CB2R-dependent recruitment of βarrestin2 than CB1R-dependent recruitment of βarrestin2 | did not display a bias | CB1R-dependent inhibition of FSK-stimulated cAMP, activity in words (hCB1R [2]; relative to CP55940): partial agonist; Affinity for CB2R compared with CP55,940, in words (hCB2R [8]): significantly less affinity; Competition of 1.0 nM [^3H]CP55,940 from CB2R, in words (hCB2R [8]): completely displaced; Competition of 1.0 nM [^3H]CP55,940 from CB2R, in words (hCB2R [8]; listed as AB PINACA N-(2-fluoropentyl) isomer): fully competed; Competition of 1.0 nM [^3H]CP55,940 from CB1R, in words (hCB1R [10]): only partially competing; CB1R versus CB2R selectivity, receptor affinity (hCB1R [10]): greater affinity at CB1R relative to CB2R |
| O=C(Oc1cccc2cccnc12)c1nn(CCCCCF)c2ccccc12 [5-fluoro NPB-22] | 830 | 210 ± 12 | equipotent, but produced supramaximal EMax responses |  | 53 | 96 ± 7 | did not display a bias |  |  | 3.2 | 110 ± 7.6 | 280 | 120 ± 3.7 | not different with regard to potency relative to the reference agonist CP55,940, and produced supramaximal EMax responses | 4.3 | 34 ± 8.1 | 47 | 2.3 ± 7.8 |  | significant bias toward the recruitment of βarrestin2 |  |
| CCCCCc1cc(O)c2c(c1)OC(C)(C)[C@@H]1CCC(C)=C[C@@H]21 [∆^9-THC, ∆^9-tetrahydrocannabinol, reference compound] |  |  |  |  |  |  | did not display a bias | increased open arm entry | greater amount of time spent in the open arms |  | 48 ± 3.8 |  | 58 ± 1.1 | significantly lower efficacy, but similar potency |  | 65 ± 7.6 |  |  |  |  | EPM total arm entries (male C57Bl/6 mice [4]): did not change total arm entries; CB2R-dependent inhibition of FSK-stimulated cAMP, activity in words (hCB2R [6]; relative to CP55,940): significantly lower efficacy |
| CC(C)C(NC(=O)c1nn(Cc2ccccc2F)c2ccccc12)C(N)=O (centres unmarked) [ortho-AB-FUBINACA] | 810 | 280 ± 11 | equipotent, but produced supramaximal EMax responses |  | 3.6 | 83 ± 8.4 | significant bias toward the inhibition of cAMP |  |  | 0.06 | 110 ± 6.7 | 140 | 120 ± 3.1 | not different with regard to potency relative to the reference agonist CP55,940, and produced supramaximal EMax responses | 0.93 | 17 ± 1.2 | 2.7 | 16 ± 5.4 | more potent for CB2R-dependent recruitment of βarrestin2 than CB1R-dependent recruitment of βarrestin2 | significant bias toward the recruitment of βarrestin2 | Affinity for CB2R compared with CP55,940, in words (hCB2R [8]): significantly greater affinity; Competition of 1.0 nM [^3H]CP55,940 from CB2R, in words (hCB2R [8]): completely displaced |
